From ChEMBL document CHEMBL1146705, “Resistance towards exonucleases of dinucleotides with stereochemically altered internucleotide phosphate bonds” (Bioorg Med Chem Lett, 2004)

Experiments:
[1] = Vmax towards phosphodiesterase I and II; NS = Non-substrate
[2] = Ratio of Vmax to that of Km towards phosphodiesterase I (PDE I)
[3] = Affinity for phosphodiesterase 1
[4] = Vmax towards phosphodiesterase 1
[5] = Ratio of Vmax to that of Km towards phosphodiesterase II (PDE II)

Row | SMILES | Vmax [1] | Ratio [2] | Km [3] [µM] | Vmax [4] [mM/min] | Ratio [5]
1 | Nc1ccn(C2C[C@@H](OP(=O)(O)OC[C@H]3OC[C@H](n4ccc(N)nc4=O)[C@H]3O)[C@@H](COP(=O)(O)O)O2)c(=O)n1 (some centres undefined) | Non substrate |  |  |  | 
2 | Nc1ccn([C@H]2C[C@H](O)[C@@H](COP(=O)(O)O[C@H]3[C@H](n4cnc5c(N)ncnc54)CO[C@@H]3COP(=O)(O)O)O2)c(=O)n1 | Non substrate |  |  |  | 
3 | Nc1ccn(C2C[C@@H](O)[C@@H](COP(=O)(O)O[C@H]3[C@@H](CO)OC[C@@H]3n3cnc4c(N)ncnc43)O2)c(=O)n1 (some centres undefined) |  | 15.4 | 1250 | 19.2 | 4.5

Continued, values first:

Row | Vmax [1] | Ratio [2] | Km [3] [µM] | Vmax [4] [mM/min] | Ratio [5] | SMILES
4 |  | 52.4 | 2700 | 141 | 21.1 | Nc1ccn(C2C[C@@H](O)[C@@H](COP(=O)(O)O[C@@H]3CC(n4cnc5c(N)ncnc54)O[C@@H]3CO)O2)c(=O)n1 (some centres undefined)
5 |  | 1610 | 900 | 1450 | 87.8 | Nc1ccn(C2C[C@@H](O)[C@@H](COP(=O)(O)O[C@@H]3CC(n4ccc(N)nc4=O)O[C@@H]3CO)O2)c(=O)n1 (some centres undefined)
